Values joined by “and” are separate entries in the source; they are usually repeats but may differ in a detail not shown here. Equal values may be shown once.
Row | melting point | Compound
1 | 72 to 75 °C | N=C(NO)c1nn(-c2c(Cl)cc(C(F)(F)F)cc2Cl)c(C=O)c1SC(F)(F)F [Compound 22, 1-[2,6-Dichloro-4-(trifluoromethyl)phenyl]-5-formyl-N-hydroxy-4-trifluoromethylthio-1H-pyrazole-3-carboximidamide]
2 | 68 to 72 °C | N=C(NO)c1nn(-c2c(Cl)cc(C(F)(F)F)cc2Cl)c(C=NO)c1SC(F)(F)F [Compound 23, 1-[2,6-Dichloro-4-(trifluoromethyl)phenyl]-N-hydroxy-5-hydroxyiminomethyl-4-trifluoromethylthio-1H-pyrazole-3-carboximidamide]
3 | 128 to 130 °C | CC(C)ON=Cc1nn(-c2c(Cl)cc(C(F)(F)F)cc2Cl)c(N)c1[S+](C)[O-] (centres unmarked) [Compound 24, 5-Amino-1-[2,6-dichloro-4-(trifluoromethyl)phenyl]-4-methylsulfinyl-1H-pyrazole-3-carboxaldehyde O-(isopropyl)oxime]
4 | 160 to 162.5 °C | CSc1c(C=NO)nn(-c2c(Cl)cc(C(F)(F)F)cc2Cl)c1C [Compound 29, 1-[2,6-Dichloro-4-(trifluoromethyl)phenyl]-5-methyl-4-methylthio-1H-pyrazole-3-carboxaldehyde oxime]
5 | 210 to 214 °C | Cc1c([S+](C)[O-])c(C=NO)nn1-c1c(Cl)cc(C(F)(F)F)cc1Cl (centres unmarked) [Compound 30, 1-[2,6-Dichloro-4-(trifluoromethyl)phenyl]-5-methyl-4-methylsulfinyl-1H-pyrazole-3-carboxaldehyde oxime]
6 | 195.5 to 196.5 °C | C[S+]([O-])c1c(C=NO)nn(-c2ncc(C(F)(F)F)cc2Cl)c1N (centres unmarked) [Compound 32, 5-Amino-1-[3-chloro-5-(trifluoromethyl)-2-pyridinyl]-4-methylsulfinyl-1H-pyrazole-3-carboxaldehyde oxime]
7 | 155 to 157 °C | CCSc1c(C=NO)nn(-c2c(Cl)cc(C(F)(F)F)cc2Cl)c1C [Compound 33, 1-[2,6-Dichloro-4-(trifluoromethyl)phenyl]-4-ethylthio-5-methyl-1H-pyrazole-3-carboxaldehyde oxime]
8 | 210 to 213 °C | CC[S+]([O-])c1c(C=NO)nn(-c2c(Cl)cc(C(F)(F)F)cc2Cl)c1C (centres unmarked) [Compound 34, 1-[2,6-Dichloro-4-(trifluoromethyl)phenyl]-4-ethylsulfinyl-5-methyl-1H-pyrazole-3-carboxaldehyde oxime]
9 | 178 to 181 °C | CSc1c(C=NO)nn(-c2c(Cl)cc(C(F)(F)F)cc2Cl)c1N(C)C [Compound 36, 1-[2,6-Dichloro-4-(trifluoromethyl)phenyl]-5-dimethylamino-4-methylthio-1H-pyrazole-3-carboxaldehyde oxime]
10 | 204 to 206 °C | CC[S+]([O-])c1c(C=NO)nn(-c2c(Cl)cc(OC(F)(F)F)cc2Cl)c1N (centres unmarked) [Compound 37, 5-Amino-1-[2,6-dichloro-4-(trifluoromethoxy)phenyl]-4-ethylsulfinyl-1H-pyrazole-3-carboxaldehyde oxime]
11 | 136 to 146 °C | Nc1c(C(F)(F)F)c(C=NO)nn1-c1c(Cl)cc(C(F)(F)F)cc1Cl [Compound 38, 5-Amino-1-[2,6-dichloro-4-(trifluoromethyl)phenyl]-4-trifluoromethyl-1H-pyrazole-3-carboxaldehyde oxime]
12 | 68 to 71 °C | CC(=NO)c1nn(-c2c(Cl)cc(C(F)(F)F)cc2Cl)c(N)c1[S+](C)[O-] (centres unmarked) [Compound 39, 3-Acetyl-5-amino-1-[2,6-dichloro-4-(trifluoromethyl)phenyl]-4-methylsulfinyl-1H-pyrazole oxime]
13 | 186 to 189 °C | CC[S+]([O-])c1c(C(=N)NO)nn(-c2c(Cl)cc(C(F)(F)F)cc2Cl)c1N (centres unmarked) [Compound 42, 5-Amino-1-[2,6-dichloro-4-(trifluoromethyl)phenyl]-N-hydroxy-4-ethylsulfinyl-1H-pyrazole-3-carboximidamide]
14 | 170 to 175 °C | CCSc1c(C(=N)NO)nn(-c2c(Cl)cc(C(F)(F)F)cc2Cl)c1N [Compound 43, 5-Amino-1-[2,6-dichloro-4-(trifluoromethyl)phenyl]-N-hydroxy-4-ethylthio-1H-pyrazole-3-carboximidamide]
15 | 225 to 227 °C and 225 to 226 °C | C[S+]([O-])c1c(C(=N)NO)nn(-c2c(Cl)cc(C(F)(F)F)cc2Cl)c1N (centres unmarked) [Compound 44, 5-Amino-1-[2,6-dichloro-4-(trifluoromethyl)phenyl]-N-hydroxy-4-methylsulfinyl-1H-pyrazole-3-carboximidamide]
16 | 198 to 200 °C | C[S+]([O-])c1c(C(=N)NO)nn(-c2c(Cl)cc(OC(F)(F)F)cc2Cl)c1N (centres unmarked) [Compound 45, 5-Amino-1-[2,6-dichloro-4-(trifluoromethoxy)phenyl]-N-hydroxy-4-methylsulfinyl-1H-pyrazole-3-carboximidamide]
17 | 109 to 111 °C | CS(=O)(=O)c1c(C(=N)NO)nn(-c2c(Cl)cc(C(F)(F)F)cc2Cl)c1N [Compound 46, 5-Amino-1-[2,6-dichloro-4-(trifluoromethyl)phenyl]-N-hydroxy-4-methylsulfonyl-1H-pyrazole-3-carboximidamide]

Second part, the compound before the results:

Row | Compound | melting point
18 | CNC(=O)ON=Cc1nn(-c2c(Cl)cc(C(F)(F)F)cc2Cl)c(N)c1[S+](C)[O-] (centres unmarked) | 146 to 147 °C
19 | C[S+]([O-])c1c(C=NO[Si](C)(C)C(C)(C)C)nn(-c2c(Cl)cc(C(F)(F)F)cc2Cl)c1N (centres unmarked) | 150 to 154 °C
20 | C[S+]([O-])c1c(C=NO)nn(-c2c(Cl)cc(C(F)(F)F)cc2Cl)c1N (centres unmarked) [Compound 1, 5-Amino-1-[2,6-dichloro-4-(trifluoromethyl)phenyl]-4-methylsulfinyl-1H-pyrazole-3-carboxaldehyde oxime] | 219 to 221 °C (dec.)
21 | CCNc1c([S+](C)[O-])c(C=NO)nn1-c1c(Cl)cc(C(F)(F)F)cc1Cl (centres unmarked) [Compound 2, 1-[2,6-Dichloro-4-(trifluoromethyl)phenyl]-5-ethylamino-4-methylsulfinyl-1H-pyrazole-3-carboxaldehyde oxime] | 158 to 161 °C
22 | CNc1c([S+](C)[O-])c(C=NO)nn1-c1c(Cl)cc(C(F)(F)F)cc1Cl (centres unmarked) [Compound 3, 1-[2,6-Dichloro-4-(trifluoromethyl)phenyl]-5-methylamino-4-methylsulfinyl-1H-pyrazole-3-carboxaldehyde oxime] | 162 °C
23 | C[S+]([O-])c1c(C=NO)nn(-c2c(Cl)cc(OC(F)(F)F)cc2Cl)c1N (centres unmarked) [Compound 4, 5-Amino-1-[2,6-dichloro-4-(trifluoromethoxy)phenyl]-4-methylsulfinyl-1H-pyrazole-3-carboxaldehyde oxime] | 144 to 146 °C
24 | CC[S+]([O-])c1c(C=NO)nn(-c2c(Cl)cc(C(F)(F)F)cc2Cl)c1N (centres unmarked) [Compound 5, 5-Amino-1-[2,6-dichloro-4-(trifluoromethyl)phenyl]-4-ethylsulfinyl-1H-pyrazole-3-carboxaldehyde oxime] | 195 °C
25 | Nc1c(SC(F)(F)F)c(C=NO)nn1-c1c(Cl)cc(C(F)(F)F)cc1Cl [Compound 6, 5-Amino-1-[2,6-dichloro-4-(trifluoromethyl)phenyl]-4-trifluoromethylthio-1H-pyrazole-3-carboxaldehyde oxime] | 163 to 169 °C
26 | Nc1c(SC(F)F)c(C=NO)nn1-c1c(Cl)cc(C(F)(F)F)cc1Cl [Compound 7, 5-Amino-1-[2,6-dichloro-4-(trifluoromethyl)phenyl]-4-difluoromethylthio-1H-pyrazole-3-carboxaldehyde oxime] | 146 to 152 °C
27 | CSc1c(C=NO)nn(-c2c(Cl)cc(C(F)(F)F)cc2Cl)c1N [Compound 8, 5-Amino-1-[2,6-dichloro-4-(trifluoromethyl)phenyl]-4-methylthio-1H-pyrazole-3-carboxaldehyde oxime] | 179 to 181 °C
28 | CC(=O)ON=Cc1nn(-c2c(Cl)cc(C(F)(F)F)cc2Cl)c(N)c1[S+](C)[O-] (centres unmarked) [Compound 10, 5-Amino-1-[2,6-dichloro-4-(trifluoromethyl)phenyl]-4-methylsulfinyl-1H-pyrazole-3-carboxaldehyde O-(acetyl)oxime] | 130 to 134 °C
29 | Cc1ccccc1C(=O)ON=Cc1nn(-c2c(Cl)cc(C(F)(F)F)cc2Cl)c(N)c1[S+](C)[O-] (centres unmarked) [Compound 11, 5-Amino-1-[2,6-dichloro-4-(trifluoromethyl)phenyl]-4-methylsulfinyl-1H-pyrazole-3-carboxaldehyde O-(2-methylbenzoyl)oxime] | 107 to 110 °C
30 | CCOC(=O)C(C)C(=O)ON=Cc1nn(-c2c(Cl)cc(C(F)(F)F)cc2Cl)c(N)c1[S+](C)[O-] (centres unmarked) [Compound 13, 5-Amino-1-[2,6-dichloro-4-(trifluoromethyl)phenyl]-4-methylsulfinyl-1H-pyrazole-3-carboxaldehyde O-[2-(ethoxycarbonyl)propionyl]oxime] | 52 to 54 °C
31 | CSc1c(C=NOC(C)=O)nn(-c2c(Cl)cc(C(F)(F)F)cc2Cl)c1N [Compound 14, 5-Amino-1-[2,6-dichloro-4-(trifluoromethyl)phenyl]-4-methylthio-1H-pyrazole-3-carboxaldehyde O-(acetyl)oxime] | 205.5 to 206.5 °C
32 | COC(=O)ON=Cc1nn(-c2c(Cl)cc(C(F)(F)F)cc2Cl)c(N)c1SC [Compound 15, 5-Amino-1-[2,6-dichloro-4-(trifluoromethyl)phenyl]-4-methylthio-1H-pyrazole-3-carboxaldehyde O-(methoxycarbonyl)oxime] | 171 to 173 °C
33 | CS(=O)(=O)c1c(C=NO)nn(-c2c(Cl)cc(C(F)(F)F)cc2Cl)c1N [Compound 16, 5-Amino-1-[2,6-dichloro-4-(trifluoromethyl)phenyl]-4-methylsulfonyl-1H-pyrazole-3-carboxaldehyde oxime] | 209.5 to 211 °C (dec.)
34 | CON=Cc1nn(-c2c(Cl)cc(C(F)(F)F)cc2Cl)c(N)c1[S+](C)[O-] (centres unmarked) [Compound 17, 5-Amino-1-[2,6-dichloro-4-(trifluoromethyl)phenyl]-4-methylsulfinyl-1H-pyrazole-3-carboxaldehyde O-(methyl)oxime] | 80 °C
35 | C[S+]([O-])c1cn(-c2c(Cl)cc(C(F)(F)F)cc2Cl)nc1C=NO (centres unmarked) [Compound 20, 1-[2,6-Dichloro-4-(trifluoromethyl)phenyl]-4-methylsulfinyl-1H-pyrazole-3-carboxaldehyde oxime] | 239 to 240 °C

Source: patent publication US6638956B2, “Pesticidal 1-arylpyrazoles” (Rhone-Poulenc, Inc., priority 1996, dated 2003)
